Data: the supplement of paper PMC10307832

How the values were obtained:
Test in all cases: relative viability (nuclei count vs DMSO), 5 days (fraction); higher = more cells survive
[1] = compound: OCc1c[nH]c2ccccc12 [Indole-3-carbinol] + CS(=O)(=O)N1CCN(Cc2cc3nc(-c4cccc5[nH]ncc45)nc(N4CCOCC4)c3s2)CC1 [Pictilisib] (partner 1 µM)
Method in brief: (§1)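 Values are medians from duplicate plates. Each reflects relative viability, defined as the nuclei count of treated wells over that of vehicle wells. Lung cancer cell lines in 1536-well plates were pin-tool dosed one day after seeding with one drug alone or with a fixed anchor-drug dose plus five library-drug doses (not always all listed) in √10 steps, then fixed, stained and imaged at 4× after 5 days.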

[2] = compound: OCc1c[nH]c2ccccc12 [Indole-3-carbinol] + COc1cccc2cc(-c3nc([C@H]4CC[C@H](C(=O)O)CC4)n4ncnc(N)c34)[nH]c12 [OSI-027] (partner 0.5 µM)
Method in brief: as §1

[3] = compound: OCc1c[nH]c2ccccc12 [Indole-3-carbinol] + CC1(C)CCC(c2ccc(Cl)cc2)=C(CN2CCN(c3ccc(C(=O)NS(=O)(=O)c4ccc(N[C@H](CCN5CCOCC5)CSc5ccccc5)c(S(=O)(=O)C(F)(F)F)c4)cc3)CC2)C1 [Navitoclax] (partner 0.5 µM)
Method in brief: as §1

[4] = compound: OCc1c[nH]c2ccccc12 [Indole-3-carbinol] + CC(C)C[C@H](NC(=O)[C@H](Cc1ccccc1)NC(=O)c1cnccn1)B(O)O [Bortezomib] (partner 0.002 µM)
Method in brief: as §1

[5] = compound: OCc1c[nH]c2ccccc12 [Indole-3-carbinol] + CS(=O)(=O)CCNCc1ccc(-c2ccc3ncnc(Nc4ccc(OCc5cccc(F)c5)c(Cl)c4)c3c2)o1 [Lapatinib] (partner 2 µM)
Method in brief: as §1

Cell Line | relative viability ([1]; first compound 0.253 µM) | relative viability ([1]; first compound 0.8 µM) | relative viability ([1]; first compound 2.53 µM) | relative viability ([1]; first compound 8 µM) | relative viability ([2]; first compound 0.253 µM) | relative viability ([2]; first compound 0.8 µM) | relative viability ([2]; first compound 2.53 µM) | relative viability ([2]; first compound 8 µM) | relative viability ([3]; first compound 0.253 µM) | relative viability ([3]; first compound 0.8 µM) | relative viability ([3]; first compound 2.53 µM) | relative viability ([3]; first compound 8 µM) | relative viability ([4]; first compound 0.253 µM) | relative viability ([4]; first compound 0.8 µM) | relative viability ([4]; first compound 2.53 µM) | relative viability ([4]; first compound 8 µM) | relative viability ([5]; first compound 0.253 µM) | relative viability ([5]; first compound 0.8 µM) | relative viability ([5]; first compound 2.53 µM) | relative viability ([5]; first compound 8 µM)
NCI-H3122 | 0.553 | 0.673 | 0.592 | 0.588 | 0.967 | 1.08 | 1.02 | 0.948 | 1.04 | 1.01 | 1.02 | 1.01 | 1.01 | 1.04 | 1.07 | 1.04 | 1.05 | 1.01 | 1.04 | 1.05
NCI-H727 | 0.263 | 0.409 | 0.477 | 0.494 | 0.544 | 0.517 | 0.548 | 0.771 | 0.359 | 0.355 | 0.364 | 0.497 | 0.872 | 0.842 | 0.897 | 0.828 | 0.75 | 0.699 | 0.782 | 0.769
HOP-62 | 0.771 | 0.806 | 1.01 | 0.731 | 0.802 | 0.796 | 0.791 | 0.789 | 1.09 | 0.817 | 1.28 | 0.851 | 0.989 | 0.711 | 0.82 | 0.521 | 0.957 | 0.874 | 1.11 | 0.966
RERF-LC-KJ | 0.512 | 0.541 | 0.562 | 0.581 | 0.556 | 0.545 | 0.585 | 0.601 | 1.12 | 0.907 | 0.971 | 1.04 | 1.19 | 1.08 | 1.13 | 1.04 | 0.866 | 0.891 | 0.802 | 0.787
HCC-44 | 0.52 | 0.499 | 0.49 | 0.506 | 0.488 | 0.412 | 0.484 | 0.525 | 1.05 | 0.986 | 0.941 | 0.859 | 0.911 | 1.03 | 0.888 | 0.869 | 1.02 | 1.04 | 0.973 | 0.988
NCI-H1915 | 0.901 | 0.858 | 0.949 | 0.926 | 0.571 | 0.611 | 0.623 | 0.563 | 0.753 | 0.787 | 0.768 | 0.762 | 0.968 | 0.881 | 0.973 | 0.977 | 1.01 | 0.968 | 0.993 | 0.972
PC-14 | 0.738 | 0.875 | 0.735 | 0.652 | 0.756 | 0.828 | 0.873 | 0.706 | 1.01 | 1.1 | 1.07 | 0.961 | 0.878 | 0.971 | 0.85 | 0.874 | 0.288 | 0.321 | 0.342 | 0.266
SK-LU-1 | 0.568 | 0.405 | 0.522 | 0.551 | 0.359 | 0.322 | 0.382 | 0.314 | 0.899 | 0.783 | 0.795 | 0.653 | 1.32 | 1.03 | 1.35 | 0.987 | 0.941 | 0.903 | 1.06 | 0.829
